From US20210309666A1, “SMALL MOLECULE MDM2 PROTEIN DEGRADERS” (THE REGENTS OF THE UNIVERSITY OF MICHIGAN, priority 2018, published 2021)
Read-outs that look alike come from different tables or passages of the source.

Key:
22RV1 cells = test: Cell growth inhibition, 4-day proliferation assay (WST-8); format: cell-based; conditions: Homo sapiens, 96 h; 22RV1, prostate carcinoma, 4 days
Method in brief: (§1)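 Cells seeded at 2,000-3,000 per well in medium with 10% FBS and treated with serial compound dilutions for 4 days at 37 °C, 5% CO2. Viability by WST-8 (10% v/v, 1-2 h), absorbance at 450 nm, normalised to DMSO; IC50 by four-parameter variable-slope fit.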

HCT116 cells = test: as above; format: cell-based; conditions: Homo sapiens, HCT-116, 96 h; HCT116, colorectal carcinoma, 4 days
Method in brief: as §1

LNCaP cells = test: as above; format: cell-based; conditions: Homo sapiens, 96 h, prostate carcinoma, 4 days
Method in brief: as §1

ML-2 cells = test: as above; format: cell-based; conditions: Homo sapiens, 96 h; ML-2, acute myeloid leukemia, 4 days
Method in brief: as §1

MOLM-13 cells = test: as above; format: cell-based; conditions: Homo sapiens, 96 h; MOLM-13, acute myeloid leukemia, 4 days
Method in brief: as §1

MOLM-14 cells = test: as above; format: cell-based; conditions: Homo sapiens, 96 h; MOLM-14, acute myeloid leukemia, 4 days
Method in brief: as §1

MV-4;11 cells = test: as above; format: cell-based; conditions: Homo sapiens, MV4-11, 96 h, 11, acute biphenotypic B myelomonocytic leukemia, 4 days
Method in brief: as §1

OCI-AML-2 cells = test: as above; format: cell-based; conditions: Homo sapiens, OCI-AML2, 96 h; OCI-AML-2, acute myeloid leukemia, 4 days
Method in brief: as §1

OCI-AML-5 cells = test: as above; format: cell-based; conditions: Homo sapiens, 96 h; OCI-AML-5, acute myeloid leukemia, 4 days
Method in brief: as §1

RS4;11 cells = test: as above; format: cell-based; conditions: Homo sapiens, 96 h; RS4; 11, precursor cell lymphoblastic leukemia, 4 days; read-out: IC50
Method in brief: as §1

SIG-M5 cells = test: as above; format: cell-based; conditions: Homo sapiens, 96 h; SIG-M5, acute myeloid leukemia, 4 days
Method in brief: as §1

p53 protein [1] = test: Western blot analysis in RS4;11 cells, p53; format: cell-based, human; conditions: 2 hr treatment
Experimental: (§2) RS4;11 cells were treated with Cpd. No. 4 and Cpd. No. 6 (MDM2 degraders) or with Cpd. B and Cpd. C (MDM2 inhibitors) for 2 hr. MDM2 and p53 proteins were probed using specific antibodies. GAPDH was used as the loading control. […] No. 4 and Cpd. No. 6 reduce MDM2 protein and increase p53 protein level, and that Cpd. B and Cpd. C increase MDM2 and p53 protein levels in RS4;11 cells. The structures of Cpd. B (see Compound Example No. 24 of U.S. Pat. No. 8,629,141) and Cpd.

p53 protein [2] = test: Western blot analysis in 22RV1 cells, p53; format: cell-based, human; conditions: 2 hr treatment
Experimental: (§3) 22RV1 cells were treated with Cpd. No. 4 and Cpd. D (MDM2 degraders) or with Cpd. A (MDM2 inhibitor) for 2 hr. MDM2 and p53 proteins were probed using specific antibodies. GAPDH was used as the loading control. […] No. 4 and Cpd. D reduce MDM2 protein and increase p53 protein level, and that Cpd. A increases MDM2 and p53 protein levels in 22RV1 cells.

[3] = Pharmacokinetics in mice, oral and IV; format: in vivo; conditions: for AUC: mouse, in vivo
Experimental: The pharmacokinetics of Cpd. Nos. 4 and 6, and Cpd. D were evaluated in mice.

[4] = Separate PK experiment, plasma concentrations after oral dose; format: in vivo; conditions: mouse, 50 mg/kg, mice
Text: In a separate PK experiment, the plasma concentrations of Cpd.

MDM2 protein [5] = molecular target: T1, MDM2 protein (Homo sapiens, UniProt Q00987); test: Western blot analysis in 22RV1 cells, MDM2; format: cell-based; parameters: endogenous in cells; conditions: 2 hr treatment
T1 sequence (Q00987 whole entry): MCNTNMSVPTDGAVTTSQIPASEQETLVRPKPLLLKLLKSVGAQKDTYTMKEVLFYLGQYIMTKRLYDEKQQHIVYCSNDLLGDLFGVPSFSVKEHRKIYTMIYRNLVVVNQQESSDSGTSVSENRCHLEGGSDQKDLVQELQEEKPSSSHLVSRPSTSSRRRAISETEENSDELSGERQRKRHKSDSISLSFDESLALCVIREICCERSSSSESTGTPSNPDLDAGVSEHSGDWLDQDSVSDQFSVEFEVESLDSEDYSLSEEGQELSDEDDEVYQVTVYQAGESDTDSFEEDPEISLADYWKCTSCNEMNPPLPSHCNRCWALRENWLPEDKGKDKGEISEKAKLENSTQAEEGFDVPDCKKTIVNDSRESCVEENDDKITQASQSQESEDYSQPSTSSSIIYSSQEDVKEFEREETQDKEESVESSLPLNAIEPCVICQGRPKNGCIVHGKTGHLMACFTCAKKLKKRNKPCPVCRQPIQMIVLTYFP
Experimental: as §3

MDM2 protein [6] = molecular target: T1, MDM2 protein; test: Western blot analysis in RS4;11 cells, MDM2; format: cell-based; parameters: No. 4 and Cpd; No. 6 (MDM2 degraders); endogenous in cells; host or cells: RS4;11; conditions: 2 hr treatment
Experimental: as §2

[7] = read-out: Plasma concentration, Average / Mean
[8] = read-out: Plasma concentration, Mouse 1
[9] = read-out: Plasma concentration, Mouse 2

Work on `O=C1CCC(N2Cc3c(C#CC4CCN(C(=O)[C@H]5CC[C@H](NC(=O)[C@@H]6NC7(CCCCC7)[C@@]7(C(=O)Nc8cc(Cl)ccc87)[C@H]6c6cccc(Cl)c6F)CC5)CC4)cccc3C2=O)C(=O)N1` (stereo partly drawn) [Cpd. No. 4, (3′R,4′S,5′R)-6″-chloro-4′-(3-chloro-2-fluorophenyl)-N-((1r,4R)-4-(4-((2-(2,6-dioxopiperidin-3-yl)-1-oxoisoindolin-4-yl)ethynyl)piperidine-1-carbonyl)cyclohexyl)-2″-oxodispiro[cyclohexane-1,2′-pyrrolidine-3′,3″-indoline]-5′-carboxamide] yielded an IC50 (22RV1 cells) of 14 nM, an IC50 (HCT116 cells) of 86 nM and an IC50 (LNCaP cells) of 3.2 nM. For the same compound, the IC50 (ML-2 cells) was 1.2 nM, the IC50 (MOLM-13 cells) was 5.1 nM and the IC50 (MOLM-14 cells) was 7.8 nM. The IC50 (MV-4;11 cells) was 2.3 nM, the IC50 (OCI-AML-2 cells) was 21 nM and the IC50 (OCI-AML-5 cells) was 23 nM. For the same compound, the IC50 (RS4;11 cells) was 0.72 nM, the IC50 (SIG-M5 cells) was 21 nM and the p53 protein level (p53 protein [1]) was “increase”. For the same compound, the p53 protein level (p53 protein [2]) was “increase”, the F ([3]; PO 50 mg/kg vs IV 10 mg/kg) was 0.93% and the AUC ([3]; IV, 10 mg/kg) was 156 µg·h/mL. The AUC ([3]; PO, 50 mg/kg) was 7.25 µg·h/mL, the concentration at 1 h [4, 7] was 0.00062 µg/mL and the concentration at 1 h [4, 8] was 0.000231 µg/mL. It also gave a concentration at 1 h [4, 9] of 0.00101 µg/mL, a concentration at 3 h [4, 7] of 1.32 µg/mL and a concentration at 3 h [4, 8] of 0.902 µg/mL. The concentration at 3 h [4, 9] was 1.73 µg/mL, the concentration at 6 h [4, 7] was 0.339 µg/mL and the concentration at 6 h [4, 8] was 0.231 µg/mL. For the same compound, the concentration at 6 h [4, 9] was 0.446 µg/mL, the MDM2 protein level (MDM2 protein [5]) was “reduce” and the MDM2 protein level (MDM2 protein [6]) was “reduce”.
